Source: US20190030046A1, “USE OF PURE COMPOUNDS EXTRACTED FROM ANTRODIA CAMPHORATA” (priority 2016, published 2019)

Tests used:
CPT-1a = assay: Semiquantitative RT-PCR in liver tissue: CPT-1a; type: in vivo, C57BL/6J mice; settings: vs HF, 4 weeks
Procedure: (§1) The difference indicates the daily food intake.
(§2) Total RNA from liver tissue was isolated with a Trizol Reagent (Molecular Research Center, Inc., Cincinnati, Ohio, USA) according to the manufacturer's instructions. The integrity of the extracted total RNA was examined by 2% agarose gel electrophoresis, and the RNA concentration was determined by […] ultraviolet (UV) light absorbency at 260 nm and 280 nm (Spectrophotometer U-2800A, Hitachi). The total RNA (1 μg) was reverse transcribed to cDNA, and 5 μL Moloney murine leukemia virus reverse transcriptase (TEpicentre, Madison, Wis., USA). The PCR was performed in a final 25 μL containing 1 U Blend Taq-Plus (TOYOBO, Japan), 10 μL of the RT cDNA product, 10 μM of each forward (F) and reverse (R) primer, 75 mM Tris-HCL (pH 8.3) containing 1 mg/L Tween 20 (pH 8.3, also known as polyoxyethylene sorbitan monolaurate), 2.5 mM dNTP (deoxy-ribonucleoside triphosphate), and 2 mM MgCl2 (magnesium chloride). The PCR products were analyzed by 2% agarose gel and stained with ethidium bromide.

[1] = HFD-induced diabetic mice: absolute tissue weight, body weight, food intake; type: in vivo, C57BL/6J mice; settings: 4 weeks; for Absolute tissue weight: Visceral fat: EWAT plus RWAT
Text: as §1

SREBP-2 = assay: Semiquantitative RT-PCR in liver tissue: SREBP-2; type: in vivo, C57BL/6J mice; settings: vs HF, 4 weeks
Procedure: as §1, §2

membrane GLUT4 = assay: Membrane GLUT4 protein expression in C2C12 myotube cells (Western blot); type: cell-based; settings: 1, 5, 10, and 25 μg/mL, 25 min
Procedure: In the present invention, C2C12 skeletal myoblasts (ATCC, CRL-1772) were maintained in growth media consisting of Dulbecco's modified Eagle's medium (DMEM) (Gibco BRL) and supplemented with 10% Fetal Bovine Serum (FBS) (Hyclone) and 100 U/mL penicillin/100 μg/mL streptomycin (Gibco BRL), and split 1:4 using 0.05% trypsin when 80% confluent. Myoblasts were diluted and placed in a 9 cm-diameter dish. Cells were cultured to achieve 80%-90% confluency and then the growth media was changed as 2% FBS/DMEM every 24 h for 5-7 days.
In experiments for determining GLUT4 and p-Akt(Ser473)/t-Akt proteins in tubes, differentiated C2C12 cells were serum-starved in DMEM/BSA for 2 h at 37° C. prior to incubation with MeOH crude extract (at 20, 100, 200, and 500 μg/mL), test compounds (at 1, 5, 10, and 25 μg/mL), or vehicle for 25 min, or 100 nM insulin for 25 min.
The cultures obtained by cell culture above were centrifuged, and the resulting pellet was resuspended in a homogenization buffer. The forgoing steps were performed with a filtration membrane. Protein concentrations were measured using a BCA assay (Pierce). Equal amounts of protein were diluted four times in SDS sample buffer, and subjected to SDS PAGE and Western blotting with antibodies specific for Akt, p-Akt Ser^473, and GLUT4. Density blotting analysis was performed using Alpha Easy FC software.

aP2 = assay: Semiquantitative RT-PCR in liver tissue: aP2; type: in vivo, C57BL/6J mice; settings: vs HF, 4 weeks
Procedure: as §1, §2

G6-Pase = assay: Semiquantitative RT-PCR in liver tissue: G6-Pase; type: in vivo, C57BL/6J mice; settings: vs HF, 4 weeks
Procedure: as §1, §2

PPARγ = assay: Western blot of PPARγ protein in liver and adipose tissue of HFD mice; settings: compared to HF, 4 weeks
C2C12 myoblasts = assay: MTT test; type: cell-based; settings: dose of 1 to 25 μg/mL
UCP3 = assay: Semiquantitative RT-PCR in liver tissue: UCP3; type: in vivo, C57BL/6J mice; settings: vs HF, 4 weeks
Procedure: as §1, §2

[2] = HFD-induced diabetic mice: liver lipids; type: in vivo, C57BL/6J mice; settings: 4 weeks
PPARα = assay: Western blot of PPARα protein in liver of HFD mice; settings: compared to HF, 4 weeks
[3] = HFD-induced diabetic mice: histopathology (H-E) of epididymal white adipose and liver tissue; type: in vivo, C57BL/6J mice; settings: for Adipocyte area: epididymal white adipose, 4 weeks
Procedure: as §1
Examination was performed for parts of EWAT (epididymal white adipose) and liver tissue specimens collected. The specimens above were soaked in formalin and neutral buffered solution and embedded in paraffin. Parts therein (8 μm) were cut and stained with hematoxylin and eosin. Images were photographed by a microscope (Olympus BX51, Olympus, Tokyo, Japan). Please refer to FIGS. 3(A) and 3(B).

C=C(CC[C@@H](C(=O)O)[C@H]1CC[C@@]2(C)C3=CC[C@H]4C(C)(C)[C@@H](O)CC[C@]4(C)C3=CC[C@]12C)C(C)C [TT, dehydroeburicoic acid]
CPT-1a mRNA expression level in liver (CPT-1a; HF+TT1, 10 mg/kg/day oral): increased | CPT-1a mRNA expression level in liver (CPT-1a; HF+TT2, 20 mg/kg/day oral): increased | CPT-1a mRNA expression level in liver (CPT-1a; HF+TT3, 40 mg/kg/day oral): increased | Absolute tissue weight: Visceral fat ([1]; HF+TT1, 10 mg/kg/day oral): 1142.9 mg | Absolute tissue weight: Visceral fat ([1]; HF+TT2, 20 mg/kg/day oral): 1116.2 mg | Absolute tissue weight: Visceral fat ([1]; HF+TT3, 40 mg/kg/day oral): 979.3 mg | Absolute tissue weight: Brown adipose tissue (BAT) ([1]; HF+TT1, 10 mg/kg/day oral): 228.6 mg | Absolute tissue weight: Epididymal white adipose tissue (EWAT) ([1]; HF+TT1, 10 mg/kg/day oral): 798.9 mg | Absolute tissue weight: Liver ([1]; HF+TT1, 10 mg/kg/day oral): 848.3 mg | Absolute tissue weight: Mesenteric white adipose tissue (MWAT) ([1]; HF+TT1, 10 mg/kg/day oral): 361.3 mg | Absolute tissue weight: Retroperitoneal white adipose tissue (RWAT) ([1]; HF+TT1, 10 mg/kg/day oral): 343.9 mg | Absolute tissue weight: Spleen ([1]; HF+TT1, 10 mg/kg/day oral): 77.7 mg | Final body weight ([1]; HF+TT1, 10 mg/kg/day oral): 27.52 g | Food intake ([1]; HF+TT1, 10 mg/kg/day oral): 2.21 g/day/mouse | Weight gain ([1]; HF+TT1, 10 mg/kg/day oral): 2.24 g | Absolute tissue weight: Brown adipose tissue (BAT) ([1]; HF+TT2, 20 mg/kg/day oral): 197.3 mg | Absolute tissue weight: Epididymal white adipose tissue (EWAT) ([1]; HF+TT2, 20 mg/kg/day oral): 784.3 mg | Absolute tissue weight: Liver ([1]; HF+TT2, 20 mg/kg/day oral): 841.8 mg | Absolute tissue weight: Mesenteric white adipose tissue (MWAT) ([1]; HF+TT2, 20 mg/kg/day oral): 340.9 mg | Absolute tissue weight: Retroperitoneal white adipose tissue (RWAT) ([1]; HF+TT2, 20 mg/kg/day oral): 331.9 mg | Absolute tissue weight: Spleen ([1]; HF+TT2, 20 mg/kg/day oral): 81.5 mg | Final body weight ([1]; HF+TT2, 20 mg/kg/day oral): 26.47 g | Food intake ([1]; HF+TT2, 20 mg/kg/day oral): 2.16 g/day/mouse | Weight gain ([1]; HF+TT2, 20 mg/kg/day oral): 0.89 g | Absolute tissue weight: Brown adipose tissue (BAT) ([1]; HF+TT3, 40 mg/kg/day oral): 198.1 mg | Absolute tissue weight: Epididymal white adipose tissue (EWAT) ([1]; HF+TT3, 40 mg/kg/day oral): 667.8 mg | Absolute tissue weight: Liver ([1]; HF+TT3, 40 mg/kg/day oral): 802.8 mg | Absolute tissue weight: Mesenteric white adipose tissue (MWAT) ([1]; HF+TT3, 40 mg/kg/day oral): 304.6 mg | Absolute tissue weight: Retroperitoneal white adipose tissue (RWAT) ([1]; HF+TT3, 40 mg/kg/day oral): 311.4 mg | Absolute tissue weight: Spleen ([1]; HF+TT3, 40 mg/kg/day oral): 82.3 mg | Final body weight ([1]; HF+TT3, 40 mg/kg/day oral): 26.53 g | Food intake ([1]; HF+TT3, 40 mg/kg/day oral): 2.07 g/day/mouse | Weight gain ([1]; HF+TT3, 40 mg/kg/day oral): 0.83 g | SREBP-2 mRNA expression level in liver (SREBP-2; HF+TT1, 10 mg/kg/day oral): decreased | SREBP-2 mRNA expression level in liver (SREBP-2; HF+TT2, 20 mg/kg/day oral): decreased | SREBP-2 mRNA expression level in liver (SREBP-2; HF+TT3, 40 mg/kg/day oral): decreased | protein expression level of membrane GLUT4 (membrane GLUT4): increase | aP2 mRNA expression level in liver (aP2; HF+TT1, 10 mg/kg/day oral): decreased | aP2 mRNA expression level in liver (aP2; HF+TT2, 20 mg/kg/day oral): decreased | aP2 mRNA expression level in liver (aP2; HF+TT3, 40 mg/kg/day oral): decreased | G6-Pase mRNA expression level in liver (G6-Pase; HF+TT1, 10 mg/kg/day oral): decreased | G6-Pase mRNA expression level in liver (G6-Pase; HF+TT2, 20 mg/kg/day oral): decreased | G6-Pase mRNA expression level in liver (G6-Pase; HF+TT3, 40 mg/kg/day oral): decreased | PPARγ protein expression level in adipose tissue (PPARγ; HF+TT1, 10 mg/kg/day oral): significantly decreased | PPARγ protein expression level in liver (PPARγ; HF+TT1, 10 mg/kg/day oral): significantly decreased | PPARγ protein expression level in adipose tissue (PPARγ; HF+TT2, 20 mg/kg/day oral): significantly decreased | PPARγ protein expression level in liver (PPARγ; HF+TT2, 20 mg/kg/day oral): significantly decreased | PPARγ protein expression level in adipose tissue (PPARγ; HF+TT3, 40 mg/kg/day oral): significantly decreased | PPARγ protein expression level in liver (PPARγ; HF+TT3, 40 mg/kg/day oral): significantly decreased | toxicity to C2C12 myoblasts in MTT test (C2C12 myoblasts): non-toxic | UCP3 mRNA expression level in liver (UCP3; HF+TT2, 20 mg/kg/day oral): increased | UCP3 mRNA expression level in liver (UCP3; HF+TT3, 40 mg/kg/day oral): increased | Liver lipids: Total lipid ([2]; HF+TT1, 10 mg/kg/day oral): 64.4 mg/g | Liver lipids: Triacylglycerol ([2]; HF+TT1, 10 mg/kg/day oral): 53 µmol/g | Liver lipids: Total lipid ([2]; HF+TT2, 20 mg/kg/day oral): 61.7 mg/g | Liver lipids: Triacylglycerol ([2]; HF+TT2, 20 mg/kg/day oral): 48 µmol/g | Liver lipids: Total lipid ([2]; HF+TT3, 40 mg/kg/day oral): 57.9 mg/g | Liver lipids: Triacylglycerol ([2]; HF+TT3, 40 mg/kg/day oral): 47.1 µmol/g | PPAR protein expression level in liver (PPARα; HF+TT1, 10 mg/kg/day oral): significantly increased | PPAR protein expression level in liver (PPARα; HF+TT2, 20 mg/kg/day oral): significantly increased | PPAR protein expression level in liver (PPARα; HF+TT3, 40 mg/kg/day oral): significantly increased | Adipocyte area ([3]; HF+TT1, 10 mg/kg/day oral): 6872.5 ± 160.8 μm^2 | Adipocyte area ([3]; HF+TT2, 20 mg/kg/day oral): 6530.2 ± 148.2 μm^2 | Adipocyte area ([3]; HF+TT3, 40 mg/kg/day oral): 5972.4 ± 279.5 μm^2 | liver ballooning degeneration ([3]; pathohistological staining): reduce
